From patent US20020091124A1, “2-acyl indole derivatives and their use as antitumor agents” (priority 2000, published 2002)
Read-outs that look alike come from different tables or passages of the source. Values belong to the compound of their own block, whether it stands above or below them.

Key:
[1] = test system: human cervical carcinoma cell line KB/HeLa; assay: XTT cytotoxicity test, KB/HeLa; type: cell-based
bovine brain tubulin = test system: T1, bovine brain tubulin; assay: Bovine tubulin polymerization assay; type: biochemical; conditions: inhibition of tubulin polymerization; read-out: Tubulin-hemmung/ IC50
T1 construct: The tubulin used in the assay was isolated from bovine brain using cycles of polymerization and depolymerization
Method: In an in vitro test, selected compounds were tested for inhibition of polymerization of bovine brain. In this test, tubulin purified by cycles of polymerization and depolymerization, polymerization being initiated by addition of GTP and heating, is used.
The tubulin used in the assay was isolated from bovine brain using cycles of polymerization and depolymerization. […] The appropriate amount of test substance, dissolved in 100% DMSO, is pipetted to this mixture. 10 μl of purified bovine tubulin (50-60 μg of tubulin per well) are then added. […] 200 μl/well of decolorizing solution (25 mM NaOH, 50% ethanol, 0.05 mM EDTA) are finally added using a pipette. Following a 20 minute incubation at room temperature on a shaker (400 rpm), the absorption of 600 nm [sic] is measured in a photometer. What is calculated is the inhibition in % based on the 100% value of a positive control (which contains no test substance), and/or, if a concentration/activity curve is plotted, the lC50 value.

[2] = test system: human glioma cell line A-172; assay: XTT cytotoxicity test, A-172; conditions: A 172, 45 h, read-out: IC50 A-172
[3] = test system: human glioblastoma cell line U373; assay: Cell cycle analysis by FACS; conditions: U373, treated 24 h, FIG. 2
[4] = test system: human glioma cell line U373; assay: XTT cytotoxicity test, U373; conditions: U373 MG, 45 h, read-out: IC50 U373
rat glioma cell line C6 = assay: XTT cytotoxicity test, C6; conditions: 45 h, read-out: IC50 C6
[5] = test system: human glioma cell line U118; assay: XTT cytotoxicity test, U118; conditions: 45 h, read-out: IC50 U118
RKO p21 cells = assay: RKOp21 model, XTT assay; type: cell-based; conditions: Homo sapiens; Table 2; read-out: RKP p21 induced IC50
Text: The model used for examining the cell cycle-specific action was the RKOp21 cell system (M. Schmidt et al. Oncogene19(20):2423-9, 2000). RKO is a human colon carcinoma line in which the cell cycle inhibitor p21^wafl is expressed induced by the ecdysone expression system and leads to an arrest of the cell cycle specifically in G1 and G2. Nonspecific substances inhibit proliferation independently of whether the RKO cell is arrested in G1 or G2 or not. In contrast, cell cycle-specific substances, such as, for example, tubulin inhibitors, are only cytotoxic if the cells are not arrested and the cell cycle is in progress. […] This underlines the arrest of the cell cycle in […] already found in the FACS analyses, and a cell cycle-specific action of the compounds tested.
The assay is carried out in 96-well plates. […] Comparison of the activity on induced and non-induced cells allows conclusions to be drawn about the mechanism of action (cell cycle specificity) of the therapeutics. Non-induced [sic] cells are sown at a cell count which is about four times higher than that of non-induced cells since, compared to non-induced cells, there is no further division during the assay (2×10^4 cells/well induced, about 0.6×10^4 cells/well not induced). The controls are untreated cells (+/− induction). Induction is carried out using 3 μM of muristerone A. On day 1, the cells are plated (+/− muristerone A) and incubated at 37° C. for 24 h. On day 2, the test substance is added (control DMSO) and incubation at 37° C. is continued for another 48 h, after which a standard XTT assay is carried out.

various glioma lines = assay: XTT cytotoxicity test, various glioma lines; type: cell-based
Text: The publication by M. Medarde et al. 1998, Eur. J. Med. Chem. Vol. 33, pp. 71-77 describes combretastatin analogs which have antitumor action in a proliferation assay with the tumor cell lines P388 (leukemia, murine), A549 (pulmonary carcinoma, human), HT29 (colon carcinoma, human) and Mel28 (melanoma, human).

[6] = read-out: Zytotoxizität KB/HeLa IC50
[7] = XTT test, 45 h incubation, read-out: IC50 KB/HeLa

SMILES: COc1ccc2[nH]c(C(=O)c3ccccc3C)cc2c1 [Example D-70038, 5-methoxy-1H-2-indolyl(2-methylphenyl)-1-methanone]
- IC50 [1, 6]: ~0.5 µg/mL
- IC50 (bovine brain tubulin): 4840 nM

SMILES: COc1ccc2[nH]c(C(=O)c3cc(C)ccc3C)cc2c1 [Example D-68906, 5-methoxy-1H-2-indolyl(2,5-dimethylphenyl)-1-methanone]
- IC50 [1, 6]: ~0.2 µg/mL
- IC50 (bovine brain tubulin): 5190 nM

SMILES: COc1ccc2[nH]c(C(=O)c3cc(OC)c(OC)c(OC)c3)cc2c1 [Example D-68150, 5-methoxy-1H-2-indolyl(3,4,5-trimethoxyphenyl)-1-methanone]
- IC50 [2]: 18.5 nM
- cells in the metaphase of mitotic division (M-phase) [3]: concentration-dependent arrest of the cells in mitosis
- IC50 [4]: 19.7 nM
- IC50 (rat glioma cell line C6): 77 nM
- IC50 [5]: 19.4 nM
- IC50 (RKO p21 cells): 16.8 nM
- IC50 ([1]; 45 h, read-out: IC50 KB/HeLa): 32 nM
- IC50 [1, 6]: 32 nM
- IC50 (bovine brain tubulin): 10000 nM

SMILES: COc1ccc2[nH]c(C(=O)c3ccc(Br)cc3)cc2c1 [Example D-65499, 5-methoxy-1H-2-indolyl(4-bromophenyl)-1-methanone]
- IC50 [1, 6]: ~0.3 µg/mL
- IC50 (bovine brain tubulin): 4300 nM

SMILES: COc1ccc2[nH]c(C(=O)c3cccc4ccccc34)cc2c1 [Example D-68213, 5-methoxy-1H-2-indolyl(1-naphthalenyl)-1-methanone]
- IC50 [1, 6]: ~0.1 µg/mL
- IC50 (bovine brain tubulin): 2930 nM

SMILES: CC(=O)O[C@H]1C(=O)[C@@]2(C)[C@H]([C@H](OC(=O)c3ccccc3)[C@]3(O)C[C@H](OC(=O)[C@H](O)[C@@H](NC(=O)c4ccccc4)c4ccccc4)C(C)=C1C3(C)C)[C@]1(OC(C)=O)CO[C@@H]1C[C@@H]2O [Taxol, reference compound]
- IC50 (RKO p21 cells): 0.0078 µg/mL

SMILES: COc1ccc2[nH]c(C(=O)c3ccccc3N)cc2c1 [Example D-70047, 5-methoxy-1H-2-indolyl(2-aminophenyl)-1-methanone]
- IC50 [1, 6]: ~2 µg/mL
- IC50 (bovine brain tubulin): 6680 nM

SMILES: COc1ccccc1C(=O)c1cc2cc(C)ccc2[nH]1 [Example D-70289, 5-methyl-1H-2-indolyl(2-methoxyphenyl)-1-methanone]
- IC50 [1, 6]: ~0.1 µg/mL
- IC50 (bovine brain tubulin): 3540 nM

SMILES: COc1ccc2[nH]c(C(=O)c3ccc(Cl)cc3)cc2c1 [Example D-65500, 5-methoxy-1H-2-indolyl(4-chlorophenyl)-1-methanone]
- IC50 [1, 6]: ~1 µg/mL
- IC50 (bovine brain tubulin): 4980 nM

SMILES: O=C(O)c1ccc(C(=O)c2cc3ccccc3[nH]2)cc1 [Example 107, 4-(1H-2-indolylcarbonyl)-1-benzenecarboxylic acid]
- melting point: > 220 °C

SMILES: COc1ccc(C(=O)c2cc3cc(OC)ccc3[nH]2)c(OC)c1 [Example D-68172, 5-methoxy-1H-2-indolyl(2,4-dimethoxyphenyl)-1-methanone]
- IC50 [2]: 330 nM
- IC50 [4]: 75 nM
- IC50 (rat glioma cell line C6): 180 nM
- IC50 [5]: 119 nM
- IC50 (RKO p21 cells): 136 nM
- IC50 [1, 7]: 107 nM
- IC50 (bovine brain tubulin): < 10000 nM

Further lines, with some results ahead:

- IC50 (bovine brain tubulin): 2440 nM
SMILES: NCOc1c(C(=O)c2ccccc2N)[nH]c2ccc(O)cc12 [Example D-70046]
- IC50 [1, 6]: ~2 µg/mL

- IC50 (bovine brain tubulin): 2420 nM
SMILES: COc1cccc(C(=O)c2cc3cc(OC)ccc3[nH]2)c1 [Example D-68144, 5-methoxy-1H-2-indolyl(3-methoxyphenyl)-1-methanone]
- IC50 [2]: 15 nM
- cells in the metaphase of mitotic division (M-phase) [3]: concentration-dependent arrest of the cells in mitosis
- IC50 [4]: 5 nM
- IC50 (rat glioma cell line C6): 9.6 nM
- IC50 [5]: 8.3 nM
- IC50 (RKO p21 cells): 3.6 nM
- IC50 [1, 7]: 6.6 nM
- factor more active than compound 4d (various glioma lines; compared with Medarde et al.): 40-60
- IC50 (various glioma lines; read-out: inhibitory activity IC50 in various glioma lines): 5 to 15 nM

- IC50 (bovine brain tubulin): 2490 nM
- melting point: 190 to 192 °C
SMILES: COc1ccc2[nH]c(C(=O)c3ccc(Cl)c(Cl)c3)cc2c1 [Example D-70026, 5-methoxy-1H-2-indolyl(3,4-dichlorophenyl)-1-methanone]
- IC50 [1, 6]: ~0.1 µg/mL

- IC50 (bovine brain tubulin): 2700 nM
SMILES: COc1ccc2[nH]c(C(=O)c3cccs3)cc2c1 [Example D-70438]

- IC50 (bovine brain tubulin): 990 nM
SMILES: COc1ccc2[nH]c(C(=O)c3cccc(N)c3)cc2c1 [Example D-81167, 5-methoxy-1H-2-indolyl(3-aminophenyl)-1-methanone]
- IC50 [1, 6]: 0.089 µg/mL

- IC50 (bovine brain tubulin): 810 nM
- melting point: 141 to 142 °C
SMILES: COc1cc(OC)cc(C(=O)c2cc3cc(C)ccc3[nH]2)c1 [Example D-70316, 5-methyl-1H-2-indolyl(3,5-dimethoxyphenyl)-1-methanone]
- IC50 (RKO p21 cells): 17.9 nM

- IC50 (bovine brain tubulin): 660 nM
SMILES: COc1ccc2[nH]c(C(=O)c3cccc(O)c3)cc2c1 [Example D-81755]
- IC50 [1, 6]: 0.063 µg/mL

- IC50 (bovine brain tubulin): 850 nM
SMILES: COc1ccc2[nH]c(C(=O)c3cccc(OC(=O)CCO)c3)cc2c1 [Example D-81756]
- IC50 [1, 6]: 0.093 µg/mL

- IC50 (bovine brain tubulin): 90 nM
SMILES: CC[C@]1(O)C[C@H]2CN(CCc3c([nH]c4ccccc34)[C@@](C(=O)OC)(c3cc4c(cc3OC)N(C=O)[C@H]3[C@@](O)(C(=O)OC)[C@H](OC(C)=O)[C@]5(CC)C=CCN6CC[C@]43[C@@H]65)C2)C1 [Vincristin, Vincristine, reference compound]

- IC50 (bovine brain tubulin): 1030 nM
SMILES: COc1ccc2[nH]c(C(=O)c3ccccc3F)cc2c1 [Example D-68888, 2-fluorophenyl(5-methoxy-1H-2-indolyl)-1-methanone]
- IC50 [1, 6]: ~0.2 µg/mL

- IC50 (bovine brain tubulin): 1460 nM
SMILES: COc1ccc2[nH]c(C(=O)c3cccc(C(F)(F)F)c3)cc2c1 [Example D-68901, 5-methoxy-1H-2-indolyl(3-trifluoromethylphenyl)-1-methanone]
- IC50 [1, 6]: ~0.01 µg/mL

- IC50 (bovine brain tubulin): 1740 nM
SMILES: COc1ccc2[nH]c(C(=O)c3cccc(OC(F)(F)F)c3)cc2c1 [Example D-81194]
- IC50 [1, 6]: 0.086 µg/mL

- IC50 (bovine brain tubulin): 2120 nM
SMILES: COc1ccc2[nH]c(C(=O)c3ccccc3OC)cc2c1 [Example D-68143, 5-methoxy-1H-2-indolyl(2-methoxyphenyl)-1-methanone]
- IC50 [2]: 73 nM
- IC50 [4]: 29 nM
- IC50 (rat glioma cell line C6): 98 nM
- IC50 [5]: 23 nM
- IC50 (RKO p21 cells): 28 nM
- IC50 [1, 7]: 35 nM

- IC50 (bovine brain tubulin): 2050 nM
SMILES: COc1ccc2[nH]c(C(=O)c3cccc(SC(F)F)c3)cc2c1 [Example D-81196]
- IC50 [1, 6]: 0.134 µg/mL

- IC50 (bovine brain tubulin): 390 nM
SMILES: COc1ccc2[nH]c(C(=O)c3cccc(F)c3)cc2c1 [Example D-81187]
- IC50 (RKO p21 cells): 16.8 nM

- IC50 (bovine brain tubulin): 1500 nM
SMILES: COc1ccc2[nH]c(C(=O)c3ccc(C)cc3)cc2c1 [Example D-68887, 5-methoxy-1H-2-indolyl(4-methylphenyl)-1-methanone]
- IC50 [1, 6]: ~0.3 µg/mL
